The target of the test is human PAD4 (hPAD4) (Homo sapiens, UniProt Q9UM07). In words: RFMS human PAD4 functional assay (rapid-fire mass spectrum). In kind it is biochemical. The settings on record: 5 nM hPAD4 enzyme, 250 μM BAEE, 50 μM Calcium; 30 min preincubation, 90 min reaction at 37° C. In short, it runs like this: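 PAD4 (10 nM) preincubated 30 min with compound (top final 50 μM), then BAEE substrate added in pH 7.5 HEPES buffer with DTT, 50 μM calcium, TPEN; 90 min at 37° C. After TCA quench, citrulline derivatized with phenyl glyoxal (4 mM final, 30 min, 37° C) and quantified by RapidFire MS against internal standard.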
Chain of human PAD4 (hPAD4) (Q9UM07 whole entry): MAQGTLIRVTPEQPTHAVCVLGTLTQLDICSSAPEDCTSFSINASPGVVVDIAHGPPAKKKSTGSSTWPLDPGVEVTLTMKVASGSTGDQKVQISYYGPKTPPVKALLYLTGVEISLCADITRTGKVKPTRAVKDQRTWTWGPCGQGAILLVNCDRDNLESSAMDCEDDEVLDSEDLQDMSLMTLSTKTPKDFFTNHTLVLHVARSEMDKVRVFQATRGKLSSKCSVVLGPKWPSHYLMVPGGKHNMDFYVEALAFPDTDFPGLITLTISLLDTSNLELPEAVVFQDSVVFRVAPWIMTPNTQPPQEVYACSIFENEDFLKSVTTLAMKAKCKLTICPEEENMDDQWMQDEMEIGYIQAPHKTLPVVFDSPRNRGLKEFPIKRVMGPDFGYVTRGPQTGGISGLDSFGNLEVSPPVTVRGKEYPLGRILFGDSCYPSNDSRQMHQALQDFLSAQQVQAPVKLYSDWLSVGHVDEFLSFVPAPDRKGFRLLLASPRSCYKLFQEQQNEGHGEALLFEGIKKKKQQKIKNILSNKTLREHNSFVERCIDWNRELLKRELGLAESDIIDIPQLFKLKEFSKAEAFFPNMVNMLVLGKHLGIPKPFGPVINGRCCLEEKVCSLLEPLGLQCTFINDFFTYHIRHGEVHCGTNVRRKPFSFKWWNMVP

SMILES strings stand for the structures.

As to `COc1cc(C(=O)N2C[C@H]3CC[C@@H]2[C@@H]3N)cc2nc(-c3cc4cccnc4n3CC3CC3)n(CC3CN(S(C)(=O)=O)C3)c12` [Example 338, (1R,4R,7R)-2-{2-[1-(cyclopropylmethyl)-1H-pyrrolo[2,3-b]pyridin-2-yl]-1-[(1-methanesulfonylazetidin-3-yl)methyl]-7-methoxy-1H-1,3-benzodiazole-5-carbonyl}-2-azabicyclo[2.2.1]heptan-7-amine], the IC50 came out at 498 nM.

As for `COc1cc(C(=O)N2CC3CCC2[C@@H]3N)cc2nc(-c3cc4cccnc4n3CC3CC3)n(CC3CCN(c4ccnc(C)n4)CC3)c12` (stereo partly drawn) [Example 219], the IC50 was found to be 67 nM.

As to `COc1cc(C(=O)N2CC3CCC2[C@@H]3N)cc2nc(-c3cc4cccnc4n3CC3CC3)n(CC3CN(C(=O)c4cccc(Cl)c4)C3)c12` (stereo partly drawn) [Example 456, (7R)-2-(1-{[1-(3-chlorobenzoyl)azetidin-3-yl]methyl}-2-[1-(cyclopropylmethyl)-1H-pyrrolo[2,3-b]pyridin-2-yl]-7-methoxy-1H-1,3-benzodiazole-5-carbonyl)-2-azabicyclo[2.2.1]heptan-7-amine], the IC50 came out at 59 nM.

Take `N[C@@H]1[C@@H]2CC[C@H]1N(C(=O)c1cc(F)c3c(c1)nc(-c1cc4ccccc4n1CC1CC1)n3CC1CN(C(=O)c3ccncc3)C1)C2` [Example 95, (1R,4R,7R)-2-{2-[1-(cyclopropylmethyl)-1H-indol-2-yl]-7-fluoro-1-{[1-(pyridine-4-carbonyl)azetidin-3-yl]methyl}-1H-1,3-benzodiazole-5-carbonyl}-2-azabicyclo[2.2.1]heptan-7-amine]: the IC50 was 16 nM.

For the compound `COc1cc(C(=O)N2C[C@H](N)C[C@@H](F)C2)cc2nc(-c3cc4ccccc4n3CC3CC3)n(CC3CN(C(=O)c4ccc(C#N)cc4)C3)c12` [Example 90, 4-[3-({5-[(3R,5R)-3-amino-5-fluoropiperidine-1-carbonyl]-2-[1-(cyclopropylmethyl)-1H-indol-2-yl]-7-methoxy-1H-1,3-benzodiazol-1-yl}methyl)azetidine-1-carbonyl]benzonitrile], the IC50 was determined as 28 nM.

Consider `COc1cc(C(=O)N2C[C@H]3CC[C@@H]2[C@@H]3N)cc2nc(-c3cc4cccnc4n3CC3CC3)n(C[C@@H]3CCN(c4cncc(C#N)n4)C3)c12` [Example 207, 6-[(3R)-3-({5-[(1R,4R,7R)-7-amino-2-azabicyclo[2.2.1]heptane-2-carbonyl]-2-[1-(cyclopropylmethyl)-1H-pyrrolo[2,3-b]pyridin-2-yl]-7-methoxy-1H-1,3-benzodiazol-1-yl}methyl)pyrrolidin-1-yl]pyrazine-2-carbonitrile], for which the IC50 stood at 57 nM.

On to `COc1cc(C(=O)N2CC3CCC2[C@@H]3N)cc2nc(-c3cc4ccccc4n3CC3CC3)n(CC3CN(C(=O)C4CCC(F)(F)C4)C3)c12` (stereo partly drawn) [Example 139, (1R,4R,7R)-2-{2-[1-(cyclopropylmethyl)-1H-indol-2-yl]-1-{[1-(3,3-difluorocyclopentanecarbonyl)aze-tidin-3-yl]methyl}-7-methoxy-1H-1,3-benzodiazole-5-carbonyl}-2-azabicyclo[2.2.1]heptan-7-amine], for which the IC50 came out at 12 nM.

For the compound `COc1cc(C(=O)N2CC3CCC2[C@@H]3N)cc2nc(-c3cc4ccccc4n3CC3CC3)n(CC3CN(C(=O)c4ccnc(C#N)c4)C3)c12` (stereo partly drawn) [Example 451, 4-[3-({5-[(7R)-7-amino-2-azabicyclo[2.2.1]heptane-2-carbonyl]-2-[1-(cyclopropylmethyl)-1H-indol-2-yl]-7-methoxy-1H-1,3-benzodiazol-1-yl}methyl)azetidine-1-carbonyl]pyridine-2-carbonitrile], the 50% inhibitory concentration (IC50) worked out at 47 nM.

For the compound `COc1cc(C(=O)N2C[C@H]3CC[C@@H]2[C@@H]3N)cc2nc(-c3cc4cccnc4n3CC3CC3)n(C3CNC3)c12` [Example 307, (1R,4R,7R)-2-[1-(azetidin-3-yl)-2-[1-(cyclopropylmethyl)-1H-pyrrolo[2,3-b]pyridin-2-yl]-7-methoxy-1H-1,3-benzodiazole-5-carbonyl]-2-azabicyclo[2.2.1]heptan-7-amine], the IC50 turned out to be 297 nM.

The term IC50 denotes the midpoint of a concentration-inhibition curve.

For the origin of these results see patent US12692254B2, “Benzimidazole inhibitors of PAD enzymes” (BRISTOL-MYERS SQUIBB COMPANY, priority 2018, dated 2026).
